{"source": "paper PMC12428754", "about": "“Testing Strategies for Metabolite-Mediated Neurotoxicity” (International Journal of Molecular Sciences, 2025)", "key": {"LUHMES cells [1]": {"system": "LUHMES cells", "assay": "MitoMet (UKN4b) neurite outgrowth assay", "format": "cell-based, human", "conditions": "for IC25: Homo sapiens, benchmark response 25%, neurite area, 24 h exposure, three independent experiments, read-out: BMC25 neurite outgrowth; for fold change between BMC25 values of parent and metabolite (potency ratio, parent divided by metabolite): listed under the metabolite, >1 = metabolite more potent", "protocol": "Figure 1 (A) A strategy scheme to assess metabolite-mediated hazard in NAMs used for neurotoxicity or developmental neurotoxicity. Parent and metabolite compounds are tested separately in the respective assay. This strategy is applicable when there is prior knowledge of metabolite formation. A decision rule based on the relative toxicities (X) of the parent and metabolite may be applied to decide whether next-generation risk assessment (NGRA) should be applied to the metabolite. The value of X may be defined according to the problem formulation and the NAM used. (B) An assay scheme of the neurite outgrowth assay used here for exemplification: Proliferating LUHMES cells were replated one day before differentiation was initiated (day −1). After two days (day 2) in differentiation medium, the cells were replated into assay format (96-well). At this point, neurite growth was re-initiated. The cells were treated with toxicants 1 h after replating. Neurite outgrowth and viability were determined 24 h later, using automated high content imaging. (C) Comparison of neurite outgrowth of cultures treated with bromethalin and desmethyl-bromethalin one exemplary parent/metabolite pair (chemical structures shown). […] The curves are based on data from three independent experiments and were fitted using a four-parameter Hill function. Data points shown are arithmetic means of data from independent experiments ±SEM. In each independent experiment, the technical replicates were measured and averaged. A benchmark response (BMR) of 25% was used as specified in the detailed assay description, and the respective benchmark concentration (BMC25) was determined. […] (D) Microscopic images of calcein-stained LUHMES cells. Similar images are used for neurite quantification. Treatment with 40 nM of the parent (left) or metabolite (right). The scale bar in orange corresponds to 50 µm. […] It stands under panel C and to the right of panel D, and was assigned to C.\n(§1) The MitoMet neurite outgrowth assay was performed as previously described. In brief, all cell culture dishes and flasks were pre-coated with 50 μg/mL poly-l-ornithine (PLO) and 1 μg/mL fibronectin. Proliferating LUHMES cells were maintained in AdvDMEM/F12 containing L-glutamine (2 mM), N2 supplement (1x), and FGF (40 ng/mL). For pre-differentiation, the cells were replated at a density of 46,000 cells/cm^2 one day prior to the induction of differentiation (defined as the day of differentiation, Day −1). Differentiation was initiated by exchanging the culture medium for AdvDMEM/F12 supplemented with L-glutamine (2 mM), N2 supplement (1x), dibutyryl-cAMP (1 mM), tetracycline (1 µg/mL), and GDNF (2 ng/mL). After two days of differentiation (Day 2), the cells were replated (100,000 cells/cm^2) into 96-well plates. The final assay medium consisted of glucose-free AdvDMEM/F12 supplemented with galactose (18 mM), L-glutamine (2 mM), and tetracycline (1 µg/mL). One hour after replating, the cells were treated with a 10× concentrated stock solution of the test compound. Neurite outgrowth and viability were determined 24 h later, using automated high content imaging.\nThe image acquisition and analysis were conducted according to established protocols. The cells were stained with Hoechst H-33342 (1 µg/mL) to visualise nuclei and calcein-AM (1 µM) to label viable cell structures. Fluorescent images were acquired using an automated imaging system."}, "[2]": {"conditions": "for extent of metabolite formation / cofactor (NADPH) dependence of metabolite formation: result in words; for cofactor (NADPH) dependence of metabolite formation: human liver microsomes ± NADPH; for metabolite formation over time: samples every 30 min for 2 h", "protocol": "Parent compounds were incubated at final concentrations of either (a) 5 µM or (b) 50 µM (for chlorfenapyr) with pooled human liver microsomes (HLM; mixed gender, n = 150; BioIVT; West Sussex, UK) at corresponding protein concentrations of (a) 0.52 mg/mL or (b) 5.2 mg/mL. Incubations were performed in the absence or presence of NADPH at final concentrations of (a) 1 mM or (b) 10 mM, respectively, using a thermostated orbital shaker at 37 °C and 150 rpm. Reactions were terminated at designated time points by the addition of acetonitrile/methanol (3:1, v/v). Samples were then centrifuged at 10,000× g for 10 min, and the resulting supernatants were analysed by LC-MS/MS.\nAll analytes were measured using an Acquity UPLC H-Class system coupled to a Xevo TQ-S micro mass spectrometer (Waters). Chromatographic separation was performed on an Acquity UPLC BEH C18 column (2.1 × 50 mm, 1.7 µm) with a mobile phase consisting of 0.1% formic acid in water (A) and acetonitrile (B). Unless otherwise stated, the column was maintained at 30 °C and operated at a flow rate of 0.4 mL/min. The standard gradient was 95% A from 0 to 1.0 min, decreased to 2% A by 1.5 min, held until 4.0 min, returned to 95% A at 4.3 min, and held until 5.0 min. […] The mass spectrometer operated in electrospray ionisation (ESI) mode. Compound-specific MRM transitions, cone voltages, and collision energies for all analytes are listed in Supplementary Table S2.\nInt. J. Mol. Sci. 2025, 26, x FOR PEER REVIEW 3 of 5\nSupplementary Figure S3: Quantification of specific metabolite formation from selected parent/metabolite pairs in a human liver microsomes (HLM) assay. Parent compounds (PAR) were incubated at a concentration of 5 µM (50 µM for chlorfenapyr) with HLM in the absence (dashed line, open symbols) or presence of NADPH (solid lines, closed symbols). Samples were taken every 30 min for 2 h (+NADPH) or at 2 h only (- NADPH). The remaining fraction of the PAR was quantified for each sample. Additionally, one key metabolite (MET) was measured. Its amount is expressed as fraction of PAR converted to MET, assuming an equimolar PAR to MET reaction, 100 % indicates a complete conversion. The middle-dashed line indicates a metabolite formation of at least 10% of PAR. Data are means of two measurements n.d. = not detected.\n(1 picture or pasted object on this page, not shown here)"}, "LUHMES cells [3]": {"system": "LUHMES cells", "protocol": "Figure 4 A strategy to incorporate metabolic competence into in vitro DNT testing methods. (A) A schematic overview of a sequential metabolism and testing approach. The “metabolisation module” uses hepatic post-mitochondrial fractions (S9) to generate metabolite mixtures in the presence or absence of cofactors (NADPH, glucose-6-phosphate, MgCl2). These metabolite mixtures are tested in the “testing module” in a concentration-dependent manner after serial pre-dilutions. Metabolite mixtures are added as a fraction of 10% to the media volume of the “testing module”. The testing module may be a cell-based neurotoxicity (NT) or developmental neurotoxicity (DNT) assay, such as the neurite outgrowth or migration assay. Here, the Mito-Met neurite outgrowth assay, as in Figure 1, was used. […] The curves represent data from three independent experiments and were fitted using a four-parameter Hill function. […] The data represent three independent experiments. The indicated concentrations are “testing module” concentrations.\nTo further evaluate our modular pre-activation strategy for identifying metabolite-mediated hazard, we tested a broader panel of compounds. For each compound (parent), a single concentration was used in the metabolisation module. The metabolite mixtures were generated in the absence or presence of NADPH. These metabolite mixtures were serially diluted and assessed using the MitoMet neurite outgrowth assay. As a measure of potency, EC25 values were determined, and potency ratios were calculated to compare the effects of NADPH-dependent versus NADPH-independent metabolism.\nFigure 5 The effect of NADPH-dependent hepatic metabolism on the DNT of selected compounds. (A) A strategy scheme to assess the effect of metabolic enzymes on the outcome of cell-based DNT assays. Metabolite mixtures are generated using the NADPH-(in)dependent metabolic activity of S9. NADPH-independent metabolism is shown in green (light grey). NADPH-dependent metabolism is shown in red (dark grey). […] (B–F) The concentration-dependent effect of metabolite mixtures on neurite outgrowth was measured as in Figure 1, with the following modifications: red-fluorescent-protein (RFP)-expressing LUHMES cells were used. As the assay endpoint, the RFP fluorescence of neurites was used instead of calcein staining. The curves represent data from three independent experiments and were fitted using a four-parameter Hill function. From this, an EC25 was calculated. Bold numbers indicate the fold changes between EC25 values of the NADPH-(in)dependent metabolite mixtures, with the direction of the arrow reflecting the shift in sensitivity. Note that the x-axes indicate nominal concentrations of parent compounds. […] Similar images were used for neurite quantification. The right image (red frame) of the pairs was obtained with NADPH. The black arrowheads above the curves indicate the experimental conditions used to record images. The scale bar in orange corresponds to 50 µm.\nas §1, with “plates.” for “plates. The final assay medium consisted of glucose-free AdvDMEM/F12 supplemented with galactose (18 mM), L-glutamine (2 mM), and tetracycline (1 µg/mL). One hour after replating, the cells were treated with a 10× concentrated stock solution of the test compound. Neurite outgrowth and viability were determined 24 h later, using automated high content imaging.”"}, "[4]": {"conditions": "human liver microsomes, listed under the metabolite"}}, "note": "Like-named read-outs stand apart in the source and are kept apart here.", "data": [{"compound": "C[C@H]1[C@H](OC(=O)CCC(=O)O)O[C@@H]2O[C@@]3(C)CC[C@H]4[C@H](C)CC[C@@H]1[C@@]24OO3", "note": "[Artesunate]", "values": [{"measurement": "IC25", "setting": "LUHMES cells [1]", "value": 3.4, "unit": "µM"}, {"measurement": "extent of metabolite formation", "setting": "[2]; human liver microsomes", "value": "completely converted"}]}, {"compound": "CCCCNC(=O)n1c(NC(=O)OC)nc2ccccc21", "note": "[Benomyl]", "values": [{"measurement": "IC25", "setting": "LUHMES cells [1]", "value": 3.7, "unit": "µM"}]}, {"compound": "COc1ccc2cc3[n+](cc2c1OC)CCc1cc2c(cc1-3)OCO2", "note": "[Berberine]", "values": [{"measurement": "fold change between EC25 values of NADPH-(in)dependent metabolite mixtures (detoxification)", "setting": "LUHMES cells [3]", "value": 5, "unit": "x"}, {"measurement": "effect of metabolisation in the presence of NADPH on toxicity", "setting": "LUHMES cells [3]; result in words", "value": "reduced"}]}, {"compound": "O=P1(N(CCCl)CCCl)NCCCO1", "note": "(stereo not shown) [Cyclophosphamide]", "values": [{"measurement": "inhibition of neurite outgrowth without preincubation", "setting": "LUHMES cells [3]; 100 µM, 50 µg/mL S9, no preincubation", "value": "No inhibition of neurite outgrowth"}, {"measurement": "reduction of neurite outgrowth", "setting": "LUHMES cells [3]; 100 µM, 50 µg/mL S9, with NADPH, 2 h preincubation", "value": "approximately 90%"}, {"measurement": "neurite toxicity at low S9 concentrations", "setting": "LUHMES cells [3]; 100 µM, S9 <10 µg/mL, 2 h incubation", "value": "did not lead to neurite toxicity"}, {"measurement": "fold change between EC25 values of NADPH-independent and NADPH-dependent metabolite mixtures (toxification)", "setting": "LUHMES cells [3]; rat liver S9 50 µg/mL in testing module, 2 h preincubation, RFP-LUHMES, toxicity increased with NADPH", "value": "> 25", "unit": "x"}]}, {"compound": "C[C@H]1[C@@H](O)O[C@@H]2O[C@@]3(C)CC[C@H]4[C@H](C)CC[C@@H]1[C@@]24OO3", "note": "[Dihydroartemisinin]", "values": [{"measurement": "IC25", "setting": "LUHMES cells [1]", "value": 1.2, "unit": "µM"}, {"measurement": "fold change between BMC25 values of parent and metabolite (potency ratio, parent divided by metabolite)", "setting": "LUHMES cells [1]", "value": 3, "unit": "fold"}, {"measurement": "cofactor (NADPH) dependence of metabolite formation", "setting": "[2]", "value": "largely independently of NADPH"}, {"measurement": "metabolite formation over time", "setting": "[2]; [4]", "value": "time-dependent increase in metabolite formation"}]}, {"compound": "COC(=O)Nc1nc2ccc(Sc3ccccc3)cc2[nH]1", "note": "[Fenbendazole]", "values": [{"measurement": "IC25", "setting": "LUHMES cells [1]", "value": 0.047, "unit": "µM"}]}, {"compound": "O=C(CCC[n+]1ccc(-c2ccc(Cl)cc2)cc1)c1ccc(F)cc1", "note": "[HPP+, haloperidol pyridinium ion]", "values": [{"measurement": "IC25", "setting": "LUHMES cells [1]", "value": 7.1, "unit": "µM"}, {"measurement": "fold change between BMC25 values of parent and metabolite (potency ratio, parent divided by metabolite)", "setting": "LUHMES cells [1]", "value": 4, "unit": "fold"}, {"measurement": "extent of metabolite formation", "setting": "[2]; human liver microsomes", "value": "only trace amounts"}, {"measurement": "metabolite formation over time", "setting": "[2]; [4]", "value": "time-dependent increase in metabolite formation"}]}, {"compound": "O=C(CCCN1CCC(O)(c2ccc(Cl)cc2)CC1)c1ccc(F)cc1", "note": "[Haloperidol]", "values": [{"measurement": "IC25", "setting": "LUHMES cells [1]", "value": "> 33", "unit": "µM"}]}, {"compound": "O=P1(NCCCl)OCCCN1CCCl", "note": "(stereo not shown) [Ifosfamide]", "values": [{"measurement": "fold change between EC25 values of NADPH-independent and NADPH-dependent metabolite mixtures (toxification)", "setting": "LUHMES cells [3]", "value": "> 10", "unit": "x"}]}, {"compound": "CNC(C)Cc1ccc2c(c1)OCO2", "note": "(stereo not shown) [MDMA, methylenedioxymethamphetamine]", "values": [{"measurement": "IC25", "setting": "LUHMES cells [1]", "value": "> 100", "unit": "µM"}]}, {"compound": "C[n+]1ccc(-c2ccccc2)cc1", "note": "[MPP+, 1-methyl-4-phenylpyridinium]", "values": [{"measurement": "IC25", "setting": "LUHMES cells [1]", "value": 0.12, "unit": "µM"}, {"measurement": "cofactor (NADPH) dependence of metabolite formation", "setting": "[2]", "value": "largely independently of NADPH"}, {"measurement": "metabolite formation over time", "setting": "[2]; [4]", "value": "time-dependent increase in metabolite formation"}, {"measurement": "conversion rate of parent to metabolite", "setting": "[2]; human liver microsomes, up to 2 h, listed under the metabolite", "value": "approximately 10%"}]}, {"compound": "CN1CC=C(c2ccccc2)CC1", "note": "[MPTP, 1-methyl-4-phenyl-tetrahydropyridine]", "values": [{"measurement": "IC25", "setting": "LUHMES cells [1]", "value": "> 100", "unit": "µM"}]}, {"compound": "CC(N)Cc1ccc(O)c(O)c1", "note": "(stereo not drawn) [α-Methyldopamine]", "values": [{"measurement": "IC25", "setting": "LUHMES cells [1]", "value": 16, "unit": "µM"}, {"measurement": "fold change between BMC25 values of parent and metabolite (potency ratio, parent divided by metabolite)", "setting": "LUHMES cells [1]", "value": "> 6", "unit": "fold"}]}]}
